# Measured values: US20040156869A1, “2-substituted quinazolin-4-ylamine analogues” (Neurogen Corporation, priority 2002, published 2004)
# Target: human capsaicin receptor (VR1) (Homo sapiens, UniProt Q8NER1)
# Test: Capsaicin receptor binding assay ([3H]RTX competition, VR1-transfected HEK293 membranes)
# Sequence of human capsaicin receptor (VR1) (Q8NER1 whole entry): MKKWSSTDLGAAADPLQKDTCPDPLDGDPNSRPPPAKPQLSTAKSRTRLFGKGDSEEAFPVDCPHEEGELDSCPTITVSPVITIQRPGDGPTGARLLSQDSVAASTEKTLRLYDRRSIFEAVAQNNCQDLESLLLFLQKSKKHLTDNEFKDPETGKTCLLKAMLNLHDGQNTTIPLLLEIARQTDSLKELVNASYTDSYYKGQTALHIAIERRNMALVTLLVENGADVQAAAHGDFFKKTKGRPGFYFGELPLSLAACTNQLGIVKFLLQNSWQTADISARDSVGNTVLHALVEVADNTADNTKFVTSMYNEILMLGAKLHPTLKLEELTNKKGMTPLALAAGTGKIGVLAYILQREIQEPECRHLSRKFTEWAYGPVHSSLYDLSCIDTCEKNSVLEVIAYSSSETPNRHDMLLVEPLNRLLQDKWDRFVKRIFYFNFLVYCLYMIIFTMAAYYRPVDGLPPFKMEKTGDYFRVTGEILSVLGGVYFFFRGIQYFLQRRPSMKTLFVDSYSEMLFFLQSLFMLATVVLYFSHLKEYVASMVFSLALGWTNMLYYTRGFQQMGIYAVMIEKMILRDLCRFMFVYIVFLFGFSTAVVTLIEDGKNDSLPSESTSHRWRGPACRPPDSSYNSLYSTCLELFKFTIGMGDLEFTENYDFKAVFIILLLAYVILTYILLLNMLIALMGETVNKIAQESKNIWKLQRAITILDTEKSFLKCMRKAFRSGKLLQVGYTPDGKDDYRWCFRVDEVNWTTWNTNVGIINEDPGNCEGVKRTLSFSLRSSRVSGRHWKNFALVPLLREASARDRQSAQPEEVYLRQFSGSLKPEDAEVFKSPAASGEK
row,Structure (SMILES),Ki
1,"CCCCN(CCCC)CCc1nc(Nc2ccc(C(F)(F)F)cc2)c2ccc(-c3ncccc3C(F)(F)F)cc2n1 [Compound 420, [2-Dibutylaminoethyl-7-(3-trifluoromethyl-pyridin-2-yl)-quinazolin-4-yl]-(4-trifluoromethyl-phenyl)-amine]",< 1000 nM
2,"CC(C)N(C)CCc1nc(Nc2ccc(C(F)(F)F)cc2)c2ccc(-c3ncccc3C(F)(F)F)cc2n1 [Compound 421, [2-[(Isopropyl-methyl-amino)-ethyl]-7-(3-trifluoromethyl-pyridin-2-yl)-quinazolin-4-yl]-(4-trifluoromethyl-phenyl)-amine]",< 1000 nM
3,"CC1CCCCN1CCc1nc(Nc2ccc(C(F)(F)F)cc2)c2ccc(-c3ncccc3C(F)(F)F)cc2n1 (stereo not shown) [Compound 422, [2-(2-Methyl-piperidin-1-ylethyl)-7-(3-trifluoromethyl-pyridin-2-yl)-quinazolin-4-yl]-(4-trifluoromethyl-phenyl)-amine]",< 1000 nM
4,"C=C(C)CN(CC)CCc1nc(Nc2ccc(C(F)(F)F)cc2)c2ccc(-c3ncccc3C(F)(F)F)cc2n1 [Compound 423, [2-{2-[Ethyl-(2-methyl-allyl)-amino]-ethyl}-7-(3-trifluoromethyl-pyridin-2-yl)-quinazolin-4-yl]-(4-trifluoromethyl-phenyl)-amine]",< 1000 nM
5,"CN(CCc1nc(Nc2ccc(C(F)(F)F)cc2)c2ccc(-c3ncccc3C(F)(F)F)cc2n1)C1CCCCC1 [Compound 424, [2-[(Cyclohexyl-methyl-amino)-ethyl]-7-(3-trifluoromethyl-pyridin-2-yl)-quinazolin-4-yl]-(4-trifluoromethyl-phenyl)-amine]",< 1000 nM
6,"CCC1CCCCN1CCc1nc(Nc2ccc(C(F)(F)F)cc2)c2ccc(-c3ncccc3C(F)(F)F)cc2n1 (stereo not shown) [Compound 425, [2-(2-Ethyl-piperidin-1-ylethyl)-7-(3-trifluoromethyl-pyridin-2-yl)-quinazolin-4-yl]-(4-trifluoromethyl-phenyl)-amine]",< 1000 nM
7,"CCN(CCc1nc(Nc2ccc(C(F)(F)F)cc2)c2ccc(-c3ncccc3C(F)(F)F)cc2n1)C1CCCCC1 [Compound 426, [2-[(Cyclohexyl-ethyl-amino)-ethyl]-7-(3-trifluoromethyl-pyridin-2-yl)-quinazolin-4-yl]-(4-trifluoromethyl-phenyl)-amine]",< 1000 nM
8,"COCCN(CCOC)CCc1nc(Nc2ccc(C(F)(F)F)cc2)c2ccc(-c3ncccc3C(F)(F)F)cc2n1 [Compound 427, [2-{2-[Bis-(2-methoxy-ethyl)-amino]-ethyl}-7-(3-trifluoromethyl-pyridin-2-yl)-quinazolin-4-yl]-(4-trifluoromethyl-phenyl)-amine]",< 1000 nM
9,"CCCCCN(CCCCC)CCc1nc(Nc2ccc(C(F)(F)F)cc2)c2ccc(-c3ncccc3C(F)(F)F)cc2n1 [Compound 428, [2-Dipentylaminoethyl-7-(3-trifluoromethyl-pyridin-2-yl)-quinazolin-4-yl]-(4-trifluoromethyl-phenyl)-amine]",< 1000 nM
10,"CCCCCCN(CCCCCC)CCc1nc(Nc2ccc(C(F)(F)F)cc2)c2ccc(-c3ncccc3C(F)(F)F)cc2n1 [Compound 429, [2-Dihexylaminoethyl-7-(3-trifluoromethyl-pyridin-2-yl)-quinazolin-4-yl]-(4-trifluoromethyl-phenyl)-amine]",< 1000 nM
11,"CC1CC(C)CN(CCc2nc(Nc3ccc(C(F)(F)F)cc3)c3ccc(-c4ncccc4C(F)(F)F)cc3n2)C1 (stereo not shown) [Compound 430, [2-(3,5-Dimethyl-piperidin-1-ylethyl)-7-(3-trifluoromethyl-pyridin-2-yl)-quinazolin-4-yl]-(4-trifluoromethyl-phenyl)-amine]",< 1000 nM
12,"CCN1CCCC1CNC(=O)c1nc(Nc2ccc(C(F)(F)F)cc2)c2ccc(-c3ncccc3C(F)(F)F)nc2n1 (stereo not shown) [Compound 431, 4-(4-Trifluoromethyl-phenylamino)-7-(3-trifluoromethyl-pyridin-2-yl)-pyrido[2,3-d]pyrimidine-2-carboxylic acid (1-ethyl-pyrrolidin-2-ylmethyl)-amide]",< 1000 nM
13,"O=C(NCCCN1CCCC1)c1nc(Nc2ccc(C(F)(F)F)cc2)c2ccc(-c3ncccc3C(F)(F)F)nc2n1 [Compound 432, 4-(4-Trifluoromethyl-phenylamino)-7-(3-trifluoromethyl-pyridin-2-yl)-pyrido[2,3-d]pyrimidine-2-carboxylic acid (3-pyrrolidin-1-yl-propyl)-amide]",< 1000 nM
14,"CN1CCN(CCCNC(=O)c2nc(Nc3ccc(C(F)(F)F)cc3)c3ccc(-c4ncccc4C(F)(F)F)nc3n2)CC1 [Compound 433, 4-(4-Trifluoromethyl-phenylamino)-7-(3-trifluoromethyl-pyridin-2-yl)-pyrido[2,3-d]pyrimidine-2-carboxylic acid [3-(4-methyl-piperazin-1-yl)-propyl]-amide]",< 1000 nM
15,"CN1C2CCC1CC(NC(=O)c1nc(Nc3ccc(C(F)(F)F)cc3)c3ccc(-c4ncccc4C(F)(F)F)nc3n1)C2 (stereo not shown) [Compound 445, 4-(4-Trifluoromethyl-phenylamino)-7-(3-trifluoromethyl-pyridin-2-yl)-pyrido[2,3-d]pyrimidine-2-carboxylic acid (8-methyl-8-aza-bicyclo[3.2.1]oct-3-yl)-amide]",< 1000 nM

# Next, values leading:
row,Ki,Structure (SMILES)
1,< 1000 nM,"CN(C)CC(C)(C)CNC(=O)c1nc(Nc2ccc(C(F)(F)F)cc2)c2ccc(-c3ncccc3C(F)(F)F)nc2n1 [Compound 434, 4-(4-Trifluoromethyl-phenylamino)-7-(3-trifluoromethyl-pyridin-2-yl)-pyrido[2,3-d]pyrimidine-2-carboxylic acid (3-dimethylamino-2,2-dimethyl-propyl)-amide]"
2,< 1000 nM,"CN(C)CCNC(=O)c1nc(Nc2ccc(C(F)(F)F)cc2)c2ccc(-c3ncccc3C(F)(F)F)nc2n1 [Compound 435, 4-(4-Trifluoromethyl-phenylamino)-7-(3-trifluoromethyl-pyridin-2-yl)-pyrido[2,3-d]pyrimidine-2-carboxylic acid (2-dimethylamino-ethyl)-amide]"
3,< 1000 nM,"CN(C)CCCNC(=O)c1nc(Nc2ccc(C(F)(F)F)cc2)c2ccc(-c3ncccc3C(F)(F)F)nc2n1 [Compound 436, 4-(4-Trifluoromethyl-phenylamino)-7-(3-trifluoromethyl-pyridin-2-yl)-pyrido[2,3-d]pyrimidine-2-carboxylic acid (3-dimethylamino-propyl)-amide]"
4,< 1000 nM,"O=C(NCCN1CCCC1)c1nc(Nc2ccc(C(F)(F)F)cc2)c2ccc(-c3ncccc3C(F)(F)F)nc2n1 [Compound 437, 4-(4-Trifluoromethyl-phenylamino)-7-(3-trifluoromethyl-pyridin-2-yl)-pyrido[2,3-d]pyrimidine-2-carboxylic acid (2-pyrrolidin-1-yl-ethyl)-amide]"
5,< 1000 nM,"CCN(CC)CCNC(=O)c1nc(Nc2ccc(C(F)(F)F)cc2)c2ccc(-c3ncccc3C(F)(F)F)nc2n1 [Compound 438, 4-(4-Trifluoromethyl-phenylamino)-7-(3-trifluoromethyl-pyridin-2-yl)-pyrido[2,3-d]pyrimidine-2-carboxylic acid (2-diethylamino-ethyl)-amide]"
6,< 1000 nM,"O=C(NCCN1CCCCC1)c1nc(Nc2ccc(C(F)(F)F)cc2)c2ccc(-c3ncccc3C(F)(F)F)nc2n1 [Compound 439, 4-(4-Trifluoromethyl-phenylamino)-7-(3-trifluoromethyl-pyridin-2-yl)-pyrido[2,3-d]pyrimidine-2-carboxylic acid (2-piperidin-1-yl-ethyl)-amide]"
7,< 1000 nM,"CN1CCCC1CCNC(=O)c1nc(Nc2ccc(C(F)(F)F)cc2)c2ccc(-c3ncccc3C(F)(F)F)nc2n1 (stereo not shown) [Compound 440, 4-(4-Trifluoromethyl-phenylamino)-7-(3-trifluoromethyl-pyridin-2-yl)-pyrido[2,3-d]pyrimidine-2-carboxylic acid [2-(1-methyl-pyrrolidin-2-yl)-ethyl]-amide]"
8,< 1000 nM,"CCN(CC)CCCNC(=O)c1nc(Nc2ccc(C(F)(F)F)cc2)c2ccc(-c3ncccc3C(F)(F)F)nc2n1 [Compound 441, 4-(4-Trifluoromethyl-phenylamino)-7-(3-trifluoromethyl-pyridin-2-yl)-pyrido[2,3-d]pyrimidine-2-carboxylic acid (3-diethylamino-propyl)-amide]"
9,< 1000 nM,"O=C(NCCN1CCOCC1)c1nc(Nc2ccc(C(F)(F)F)cc2)c2ccc(-c3ncccc3C(F)(F)F)nc2n1 [Compound 442, 4-(4-Trifluoromethyl-phenylamino)-7-(3-trifluoromethyl-pyridin-2-yl)-pyrido[2,3-d]pyrimidine-2-carboxylic acid (2-morpholin-4-yl-ethyl)-amide]"
10,< 1000 nM,"O=C(NCCCN1CCOCC1)c1nc(Nc2ccc(C(F)(F)F)cc2)c2ccc(-c3ncccc3C(F)(F)F)nc2n1 [Compound 443, 4-(4-Trifluoromethyl-phenylamino)-7-(3-trifluoromethyl-pyridin-2-yl)-pyrido[2,3-d]pyrimidine-2-carboxylic acid (3-morpholin-4-yl-propyl)-amide]"
11,< 1000 nM,"CC(CN(C)C)NC(=O)c1nc(Nc2ccc(C(F)(F)F)cc2)c2ccc(-c3ncccc3C(F)(F)F)nc2n1 (stereo not shown) [Compound 444, 4-(4-Trifluoromethyl-phenylamino)-7-(3-trifluoromethyl-pyridin-2-yl)-pyrido[2,3-d]pyrimidine-2-carboxylic acid (2-dimethylamino-1-methyl-ethyl)-amide]"
12,< 1000 nM,"CCN(CC)CCCC(C)NC(=O)c1nc(Nc2ccc(C(F)(F)F)cc2)c2ccc(-c3ncccc3C(F)(F)F)nc2n1 (stereo not shown) [Compound 446, 4-(4-Trifluoromethyl-phenylamino)-7-(3-trifluoromethyl-pyridin-2-yl)-pyrido[2,3-d]pyrimidine-2-carboxylic acid (4-diethylamino-1-methyl-butyl)-amide]"
13,< 1000 nM,"CN1C(C)(C)CC(NC(=O)c2nc(Nc3ccc(C(F)(F)F)cc3)c3ccc(-c4ncccc4C(F)(F)F)nc3n2)CC1(C)C [Compound 447, 4-(4-Trifluoromethyl-phenylamino)-7-(3-trifluoromethyl-pyridin-2-yl)-pyrido[2,3-d]pyrimidine-2-carboxylic acid (1,2,2,6,6-pentamethyl-piperidin-4-yl)-amide]"
